Results as given in US20260250318A1, “COMPOSITIONS AND METHODS FOR CROSSING THE BLOOD BRAIN BARRIER” (VOYAGER THERAPEUTICS, INC., priority 2022, published 2026).

Tests used:
Details in all cases: synthetic library passage 3, intravenous, relative to wild-type AAV9
[1] = tested on: brain; assay: NGS fold enrichment of synthetic library (passage 3) in BALB/c mice, first cross-species screen; format: in vivo
How it was run: (§1)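 Synthetic capsid library (passage 3) was given intravenously […] to NHPs aged 2-4 years and to BALB/c and C57Bl/6 mice (n=3 each, 6-8 weeks). After about 28 days in vivo, tissue RNA was RT-PCR amplified and NGS-sequenced; values are fold enrichment per variant relative to wild-type AAV9.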

[2] = tested on: brain, spinal cord, and DRG of the NHPs; assay: NGS fold enrichment of synthetic library (passage 3) in NHPs, first cross-species screen; format: in vivo, cynomolgus macaques (Macaca fascicularis)
How it was run: as §1

[3] = tested on: brain; assay: NGS fold enrichment of synthetic library (passage 3) in C57Bl/6 mice, first cross-species screen; format: in vivo
How it was run: as §1

[4] = RNA from brain of BALB/c mice, NGS
[5] = RNA from spinal cord of NHPs, NGS
[6] = RNA from brain of C57Bl/6 mice, NGS

| Sequence | Fold enrichment over AAV9 in the brain of Mice (BALB/c) [1, 4] [fold] | Fold enrichment over AAV9 in the brain of NHPs ([2]; RNA from brain of NHPs, NGS) [fold] | Fold enrichment over AAV9 in the spinal cord of NHPs [2, 5] [fold] | Fold enrichment over AAV9 in the brain of Mice (C57Bl/6) [3, 6] [fold] | Fold enrichment over AAV9 in the brain of Mice (BALB/c) ([1]; RNA NGS, brain of BALB/c mice) [fold] | Fold enrichment over AAV9 in the brain of NHPs ([2]; RNA NGS, brain of NHPs) [fold] | Fold enrichment over AAV9 in the spinal cord of NHPs ([2]; RNA NGS, spinal cord of NHPs) [fold] | Fold enrichment over AAV9 in the brain of Mice (C57Bl/6) ([3]; RNA NGS, brain of C57Bl/6 mice) [fold] |
| --- | --- | --- | --- | --- | --- | --- | --- | --- |
| GCTTRLNSGQNQQT | 0.618 | 1.276 | 0.000 | 0.184 | – | – | – | – |
| GTASTYNSGQNQQT | – | – | – | – | 0.625 | 1.099 | 2.560 | 0.250 |
| GSGQVVAHVGNQQT | – | – | – | – | 0.321 | 1.901 | 0.833 | 0.800 |
| GSGQNQQSGTFLST | – | – | – | – | 0.742 | 1.090 | 5.673 | 1.021 |
| GDSSSRISGQNQQT | 0.348 | 1.151 | 3.787 | 0.916 | – | – | – | – |
| GSGTHNSAIQNQQT | – | – | – | – | 0.574 | 1.469 | 0.570 | 0.762 |
| GSKGVPTPGQNQQT | – | – | – | – | 0.459 | 2.625 | 1.292 | 1.452 |
| GSGHVPNSGLNQQT | – | – | – | – | 1.154 | 2.091 | 0.653 | 1.636 |
| GSGGTSVHQQNQQT | – | – | – | – | 0.195 | 1.629 | 0.000 | 0.585 |
| GSGQNQQTLYSSNT | – | – | – | – | 0.368 | 1.642 | 1.044 | 0.664 |
| GSGQNQQKSLNGNT | 0.851 | 1.275 | 8.573 | 0.586 | – | – | – | – |
| GSGQNAYSSQAQQT | 0.216 | 1.201 | 12.096 | 0.629 | – | – | – | – |
| GSGQNQQVAGLNNT | 0.492 | 1.386 | 3.218 | 0.449 | – | – | – | – |
| GNYLHQASGQNQQT | – | – | – | – | 0.181 | 1.635 | 1.454 | 0.816 |
| GSGQNQQSANKILT | 1.236 | 1.331 | 3.789 | 0.894 | – | – | – | – |
| GSGLTLSATQNQQT | – | – | – | – | 0.340 | 1.901 | 0.193 | 0.708 |

| Sequence | Fold enrichment over AAV9 in the brain of Mice (BALB/c) [1, 4] [fold] | Fold enrichment over AAV9 in the brain of NHPs ([2]; RNA from brain of NHPs, NGS) [fold] | Fold enrichment over AAV9 in the spinal cord of NHPs [2, 5] [fold] | Fold enrichment over AAV9 in the brain of Mice (C57Bl/6) [3, 6] [fold] | Fold enrichment over AAV9 in the brain of Mice (BALB/c) ([1]; RNA NGS, brain of BALB/c mice) [fold] | Fold enrichment over AAV9 in the brain of NHPs ([2]; RNA NGS, brain of NHPs) [fold] | Fold enrichment over AAV9 in the spinal cord of NHPs ([2]; RNA NGS, spinal cord of NHPs) [fold] | Fold enrichment over AAV9 in the brain of Mice (C57Bl/6) ([3]; RNA NGS, brain of C57Bl/6 mice) [fold] |
| --- | --- | --- | --- | --- | --- | --- | --- | --- |
| GSGQNQQTRLVDLT | – | – | – | – | 0.490 | 2.342 | 9.348 | 1.268 |
| GSGQIRQLVDNQQT | – | – | – | – | 0.272 | 1.657 | 5.529 | 0.314 |
| GSGQNQQRNSDSVT | – | – | – | – | 0.842 | 1.829 | 0.000 | 1.238 |
| GRGVQQKLQQNQQT | – | – | – | – | 0.823 | 1.817 | 0.000 | 1.974 |
| GSGQNQQLGSRQCT | – | – | – | – | 0.407 | 1.102 | 0.183 | 0.987 |
| GSGQPYSTGLNQQT | – | – | – | – | 0.376 | 1.519 | 1.403 | 0.612 |
| GSGLIRTAAQNQQT | – | – | – | – | 0.998 | 1.822 | 8.339 | 0.808 |
| GSGEYSRSGQNQQT | – | – | – | – | 0.205 | 2.145 | 0.745 | 0.617 |
| GSGQNQKILTLDQT | – | – | – | – | 0.314 | 1.080 | 0.371 | 0.291 |
| GSHGHYASGQKQQT | – | – | – | – | 0.685 | 2.016 | 0.000 | 0.895 |
| GYTRLETSGQNQQT | 0.297 | 1.250 | 1.323 | 0.841 | – | – | – | – |
| GPRLSDQSGQNQQT | – | – | – | – | 0.579 | 1.511 | 0.364 | 0.640 |
| GYFVAAWSGQNQQT | – | – | – | – | 0.175 | 4.488 | 0.000 | 0.071 |
| GSGQSHSLATNQQT | – | – | – | – | 0.343 | 1.745 | 2.711 | 1.021 |
| GSGQDVTKTGNQQT | 0.035 | 1.173 | 4.523 | 0.531 | – | – | – | – |
| GSGKNQTPIPKGQT | 1.154 | 1.339 | 5.077 | 1.306 | – | – | – | – |
